For this assay, the target named is T1, α-synuclein fibrils (Homo sapiens, UniProt P37840).
T1 construct: made in house; host or cells: E. coli BL21(DE3)RIL
As to the kind of experiment: ThT competitive assay for α-synuclein fibrils (Table 1). The conditions noted are these: for EC50: α-synuclein fibrils. The format is binding. Here is the method:
Upon binding to amyloid fibrils, a peak at approximately 440 nm becomes dominant with the fluorescent emission maximum shifted to 480 nm. This is accompanied by a strong enhancement of the fluorescence.
α-Synuclein recombinant protein was produced in E. coli. […] Freshly transformed BL21 colonies were inoculated into 2 L baffled flasks containing 250 mL sterilized TB (1.2% bactotryptone, 2.4% yeast extract, 0.4% glycerol, 0.17 M KH2PO4, 0.72 M K2HPO4) with 50 μg/ml ampicillin, and incubated overnight at 37° C. with shaking.
To determine the concentration of fibrils, the reaction mixture (100 μL) was centrifuged at 18,000×g for 10 minutes to separate fibrils from monomer. The α-synuclein monomer and other soluble proteins in the supernatant were removed, and the fibril pellet was resuspended in 100 μL solution of Tris-HCl (20 mM) and NaCl (100 mM). This fibril suspension was used in a bicinchoninic acid (BCA) protein assay along with a bovine serum albumin (BSA) standard curve to determine the concentration of fibrils in the 72 hour fibril reaction mixture.
To prepare the fibrils for performing binding assays, the fibril reaction mixture prepared above was centrifuged at 18,000×g for 10 minutes.
Once the ThT-α-synuclein saturation binding curve and dissociation constant (Kd) were determined the competitive assay for determining the binding affinity of various test compounds was conducted. […] The mixture was incubated at room temperature for 60 minutes on the shaking plate. The fluorescent intensity for each cell was measured by the fluorescence reader at λex and λem. The Ki value for each compound was calculated by the corresponding inhibition curve.
The Ki values were derived from the EC50 values using the Cheng-Prusoff equation: Ki=EC50/(1+[radioligand]/Kd). See FIGS. 17.1-31.2 for the inhibition curves for each compound in the ThioT competitive binding assay.

Setting [1] is: individual determinations, read-out: Ki (nM) α-syn.
Where [2] appears, read: average, read-out: Ki (nM) α-syn (avg).
[3] abbreviates: average, read-out: EC50 (nM) EC50 (avg).
Setting [4] is: individual determinations, read-out: EC50 (nM) EC50.

Values joined by “and” are separate entries in the source; they are usually repeats but may differ in a detail not shown here. Equal entries are not always repeated. Where two headings read alike, the source gives them in different places.

Consider `COc1ccc(NC(=O)c2ccc(/C=C/c3ccncc3)cc2)cc1` [TZ-20-83], for which, under setting [1], the Ki was 19.1 nM.
As for `COc1ccc2c(c1)NC(=O)/C(=C/C=C/c1ccc([N+](=O)[O-])cc1)O2` [TZ-19-122], the Ki is, setting by setting: under setting [2], 598 nM; under setting [1], 598 nM.
In the case of `COc1ccc2nc(/C=C/c3cccnc3C)ccc2c1` [TZ-36-44], the Ki runs as follows: under setting [2], 289 nM; under setting [1], 289 nM. Also, the EC50 under setting [3] is 755 nM and the EC50 under setting [4] is 755 nM.
For `COc1ccc(/C=C/c2cccnn2)cc1` [TZ-22-23-1], the inhibition constant (Ki) runs as follows: under setting [2], 1140 nM; under setting [1], 1140 nM.
Take `COc1ccc2nc(/C=C/c3ccnc(Cl)c3)ccc2c1` [TZ-36-42]: the Ki under setting [2] is 54 nM; the inhibition constant Ki under setting [1] is 52 nM and 56 nM. Moreover, the EC50 is 140 nM under setting [3]; 136 nM and 145 nM under setting [4].
As for `COc1ccc2nc(/C=C/c3ccccn3)ccc2c1` [TZ-36-34], the Ki reads like this: under setting [2], 193 nM; under setting [1], 193 nM. The 50% effective concentration (EC50) under setting [3] was 504 nM and the EC50 under setting [4] came out at 504 nM.
Regarding `COc1ccc2nc(/C=C/c3ccncc3Cl)ccc2c1` [TZ-36-48], the Ki amounted to 414 nM under setting [2] and 414 nM under setting [1]. Also, the 50% effective concentration (EC50) runs as follows: under setting [3], 1080 nM; under setting [4], 1080 nM.
For the compound `FC(F)(F)c1ccc(/C=C/c2ccncc2)cc1` [TZ-20-75], the Ki was found to be 36.8 nM under setting [2] and 36.8 nM under setting [1].
With `Fc1ccc(-c2ccc(-c3nc4cc(Br)ccc4o3)cc2C(F)(F)F)cn1` [TZ-31-108], the Ki under setting [2] came to 1540 nM and the Ki under setting [1] came out at 1540 nM. Moreover, the EC50 runs as follows: under setting [3], 4030 nM; under setting [4], 4030 nM.
Consider `COc1ccc(/C=C/c2ccc(-c3nccs3)s2)cc1` [TZ-37-96], for which the Ki under setting [2] came to 98.5 nM; the Ki under setting [1] is 102 nM and 95 nM.
In the case of `Brc1ccc2nc(/C=C/c3cnccn3)ccc2c1` [TZ-36-24], the Ki reads like this: under setting [2], 453 nM; under setting [1], 453 nM. Moreover, the EC50 runs as follows: under setting [3], 1190 nM; under setting [4], 1190 nM.
For `COc1ccc(/C=C/c2ccc(C=O)s2)cc1` [TZ-34-41], the Ki runs as follows: under setting [2], 148 nM; under setting [1], 148 nM. Also, the EC50 is, setting by setting: under setting [3], 387 nM; under setting [4], 387 nM.
With `Brc1ccc(/C=C/c2cccs2)cc1` [TZ-34-55], the Ki is, setting by setting: under setting [2], 198 nM; under setting [1], 198 nM. Besides, the EC50 reads like this: under setting [3], 519 nM; under setting [4], 519 nM.
In the case of `O=[N+]([O-])c1ccc(/C=C/c2ccncc2)cc1` [TZ-20-59], the Ki by setting is: under setting [2], 52.8 nM; under setting [1], 52.8 nM.
On to `CN(C)c1ccc(/C=C/c2cnccn2)cc1` [TZ-22-35-1], for which the Ki came to 698 nM under setting [2] and 698 nM under setting [1].
On to `COc1ccc(/C=C/c2ncccn2)cc1` [TZ-22-31-1], for which the inhibition constant Ki by setting is: under setting [2], 2770 nM; under setting [1], 2770 nM.
Take `COc1ccc(/C=C/c2ccoc2)cc1` [TZ-34-27]: the inhibition constant (Ki) reads like this: under setting [2], 551 nM; under setting [1], 1140 nM and 201 nM and 310 nM. The EC50 reads like this: under setting [3], 1440 nM; under setting [4], 2990 nM and 527 nM and 812 nM.
Take `COc1ccc2ccc(/C=C/c3ccncc3)nc2c1` [TZ-23-02]: the Ki under setting [2] is 71.8 nM and the Ki under setting [1] came out at 71.8 nM.
For `COC(=O)C(Cc1ccc(O)cc1)NC(=O)c1ccc(/C=C/c2ccncc2)cc1` (centres unmarked) [TZ-20-77], the Ki is 523 nM under setting [2] and 523 nM under setting [1].
As for `COc1ccc2nc(/C=C/c3cccs3)ccc2c1` [TZ-36-50], the Ki is 403 nM under setting [2] and 403 nM under setting [1]. Further, the EC50 was found to be 1050 nM under setting [3] and 1050 nM under setting [4].
On to `COc1ccc2nc(/C=C/c3cnccn3)ccc2c1` [TZ-23-12], for which the Ki came out at 36.4 nM under setting [2] and 36.4 nM under setting [1].
For the compound `Brc1ccc(/C=C/c2ccsc2)cc1` [TZ-34-58], the Ki is 319 nM under setting [2] and 319 nM under setting [1]. Besides, the EC50 by setting is: under setting [3], 834 nM; under setting [4], 834 nM.
On to `O=[N+]([O-])c1ccc(/C=C/c2cccs2)cc1` [TZ-34-74], for which the Ki by setting is: under setting [2], 55 nM; under setting [1], 55 nM. The EC50 is 145 nM under setting [3] and 145 nM under setting [4].
`CC(C)OC(=O)c1ccc(/C=C/c2ccncc2)cc1` [TZ-20-65]: the Ki was determined as 75.6 nM under setting [2] and 75.6 nM under setting [1].
On to `COc1ccc(C(=O)C2CCN(C(=O)COC(=O)c3ccc(C(C)(C)C)cc3)CC2)cc1` [TZ-20-11], for which the Ki under setting [2] is 5090 nM and the Ki under setting [1] is 5090 nM.
Take `COc1ccc(/C=C/c2ccc(-c3cccs3)s2)cc1` [TZ-34-40]: the Ki reads like this: under setting [2], 450 nM; under setting [1], 500 nM and 400 nM. Moreover, the EC50 is 1180 nM under setting [3]; 1310 nM and 1050 nM under setting [4].
Regarding `COc1ccc(/C=C/c2cc3ccccc3s2)cc1` [TZ-34-87], the Ki reads like this: under setting [2], 884 nM; under setting [1], 884 nM. Besides, the EC50 reads like this: under setting [3], 2310 nM; under setting [4], 2310 nM.
On to `Fc1ccc2nc(/C=C/c3cnccn3)ccc2c1` [TZ-36-22], for which the Ki under setting [2] stood at 109 nM and the Ki under setting [1] was 109 nM. Also, the EC50 under setting [3] turned out to be 286 nM and the EC50 under setting [4] was 286 nM.
With `COc1ccc2nc(/C=C/c3ccncc3)ccc2c1` [TZ-19-158], the Ki turned out to be 29.1 nM under setting [2] and 29.1 nM under setting [1].
For the compound `COC(=O)c1ccc(/C=C/C=C/c2ccncc2)cc1` [TZ-20-111], the Ki under setting [1] stood at 56 nM.
`O=C(Nc1ccc(OCCF)cc1)c1ccc(/C=C/c2ccncc2)cc1` [TZ-23-88]: the Ki runs as follows: under setting [2], 32.1 nM; under setting [1], 24.3 nM and 40 nM. Also, the EC50 under setting [3] came to 83.8 nM; the EC50 under setting [4] was 63.5 nM and 104 nM.
With `COc1ccc2nc(/C=C/c3ccc(Cl)nc3)ccc2c1` [TZ-36-38], the Ki is 39 nM under setting [2]; 31 nM and 47 nM under setting [1]. The EC50 reads like this: under setting [3], 101 nM; under setting [4], 80 nM and 122 nM.
As for `COc1ccc2nc(/C=C/c3ccncc3Br)ccc2c1` [TZ-36-46], the Ki reads like this: under setting [2], 168 nM; under setting [1], 140 nM and 195 nM. Besides, the EC50 under setting [3] came out at 437 nM; the EC50 under setting [4] was 365 nM and 509 nM.
In the case of `COc1ccc(C(=O)N2CCN(C(=O)c3ccc(/C=C/c4ccncc4)cc3)CC2)cc1` [TZ-20-45], the inhibition constant Ki runs as follows: under setting [2], 181 nM; under setting [1], 181 nM.
In the case of `COc1ccc(/C=C/c2ccncn2)cc1` [TZ-22-19-1], the Ki is, setting by setting: under setting [2], 154 nM; under setting [1], 154 nM.
Take `COc1ccc2ccc(/C=C/c3cnccn3)nc2c1` [TZ-23-16]: the Ki turned out to be 3180 nM under setting [2] and 3180 nM under setting [1].
Turning to `COc1ccc2ccc(/C=C/c3ccccc3)nc2c1` [TZ-19-146], the Ki runs as follows: under setting [2], 666 nM; under setting [1], 666 nM.
`COc1ccc(/C=C/c2cc(C)cs2)cc1` [TZ-34-38]: the Ki under setting [2] is 252 nM; the Ki under setting [1] is 387 nM and 114 nM and 256 nM. Further, the EC50 is 661 nM under setting [3]; 1010 nM and 299 nM and 671 nM under setting [4].
`COc1ccc2nc(/C=C/c3ccccc3)ccc2c1` [TZ-19-144]: the Ki runs as follows: under setting [2], 196 nM; under setting [1], 196 nM.
For the compound `Fc1ccc(/C=C/c2cccs2)cc1` [TZ-34-60], the Ki under setting [2] came out at 1000 nM and the Ki under setting [1] was 1000 nM. For the same compound, the EC50 was 1000 nM under setting [3] and 1000 nM under setting [4].
`O=C(Nc1ccc(I)cc1)c1ccc(/C=C/c2ccncc2)cc1` [TZ-23-56]: the Ki reads like this: under setting [2], 19.8 nM; under setting [1], 19.8 nM.
In the case of `COc1ccc(/C=C/c2cncs2)cc1` [TZ-34-35], the Ki under setting [2] was 323 nM; the Ki under setting [1] is 313 nM and 333 nM. Moreover, the EC50 is 845 nM under setting [3]; 819 nM and 871 nM under setting [4].
Turning to `O=C(NCCF)c1ccc(/C=C/c2ccncc2)cc1` [TZ-20-79], the Ki runs as follows: under setting [2], 115 nM; under setting [1], 115 nM.
Take `O=C(OCCF)c1ccc(/C=C/c2ccncc2)cc1` [TZ-20-63]: the Ki reads like this: under setting [2], 96 nM; under setting [1], 96 nM.
Turning to `COc1cccc2nc(/C=C/c3ccncc3)ccc12` [TZ-23-06], the Ki under setting [2] was 96.3 nM and the Ki under setting [1] is 96.3 nM.
Regarding `COc1ccccc1NC(=O)c1ccc(/C=C/c2ccncc2)cc1` [TZ-20-81], the Ki under setting [2] came to 150 nM and the Ki under setting [1] stood at 150 nM.
Consider `COc1ccc2c(c1)NC(=O)/C(=C/C=C/c1ccc([N+](=O)[O-])cc1)S2` [TZ-19-124], for which the Ki by setting is: under setting [2], 254 nM; under setting [1], 254 nM.
Turning to `O=[N+]([O-])c1ccc2nc(/C=C/c3cnccn3)ccc2c1` [TZ-36-20], the Ki under setting [2] was determined as 926 nM and the Ki under setting [1] is 926 nM. In addition, the EC50 under setting [3] is 2420 nM and the EC50 under setting [4] worked out at 2420 nM.
`Fc1ccc(/C=C/c2ccsc2)cc1` [TZ-34-59]: the Ki is 860 nM under setting [2] and 860 nM under setting [1]. Besides, the EC50 amounted to 2250 nM under setting [3] and 2250 nM under setting [4].
As to `CNc1ccc(/C=C/c2ccncc2)cc1` [TZ-20-97], the Ki under setting [1] came out at 33.9 nM.

By Ki is commonly meant the dissociation constant of the complex between target and ligand, obtained from inhibition or displacement. By EC50 is commonly meant the concentration giving half of the maximal effect.

The values are drawn from US10300155B2, “Alpha-synuclein ligands” (Washington University, priority 2015, dated 2019).
